Results on 7 molecules are retold here after patent US7285534B2, “Corticotropin-releasing hormone analogs and their uses” (The Regents of the University of California, priority 2002, dated 2007).

Data set [1] in a line: Hypotensive activity relative to CRH. As to conditions: in vivo.
In data set [2] the test system is S91 mouse Cloudman cells (cell line M3). As to the kind of experiment: In vitro anti-proliferation assay, Cloudman melanoma cell counts. Type of data set: cell-based. To be noted: for EC50: Cloudman melanoma cells; for Anti-proliferative effect on Cloudman melanoma cells (in words): in vitro. How it is done:
S91 mouse Cloudman cells (cell line M3) were obtained from the American Type Culture Collection. Hams F-10 medium, fetal bovine serum, and horse serum were obtained from Gibco BRL. Cloudman cells were cultured in Ham's F-10 medium supplemented with 5% horse serum, 2.5% fetal bovine serum, and 1% penicillin/streptomycin in a humidified incubator with 5% C02 at 37° C. Media were changed every second day.
Cells were plated at a concentration of ˜20,000 cells per well in Ham's F-10 medium supplemented with 5% horse serum, 2.5% fetal bovine serum and 1% penicillin/streptomycin into tissue-culture-12-well plates. Test peptides or sterile water containing 0.5% BSA (vehicle control) were added to culture medium prior to plating, and cells were allowed to adhere overnight in a humidified incubator with 5% CO2 at 37° C. Culture medium containing peptides and culture medium containing vehicle control were changed daily. For counting, cells were detached with 200 μL of 0.25% trypsin. Detachment levels were verified under a light microscope. After detachment, cell suspensions were transferred to 1.5-mL Eppendorf tubes, vigorously pipetted for uniform suspension, and cell number in 10 μL of cell suspension was counted in a hemacytometer under a light microscope.

Data set [3] has as its system W256 rat mammary carcinoma. To be noted: 100 micrograms/kg subcutaneously twice a day for 3 days; cited from earlier work.
The test system of a further data set is W256 cells. To be noted: cited from earlier work.
Setting [4] is: read-out: EC50 values for CRH peptides versus Cloudman melanoma.
Setting [5] is: Cloudman cells, relative to CRH.

Entries after “also recorded” stand apart in the source; their conditions may differ. Like-named read-outs stand apart in the source and are kept apart here. Residues, ends and D or L forms follow the SMILES beside them.

Regarding `CC[C@H](C)[C@H](NC(=O)[C@@H](NC(=O)[C@H](CCC(=O)O)NC(=O)[C@H](CCSC)NC(=O)[C@H](CC(C)C)NC(=O)[C@H](CCCCN)NC(=O)[C@H](CCCNC(=N)N)NC(=O)[C@H](CC(N)=O)NC(=O)[C@H](CO)NC(=O)[C@H](Cc1c[nH]cn1)NC(=O)[C@H](C)NC(=O)[C@H](CCC(N)=O)NC(=O)[C@H](CCC(N)=O)NC(=O)[C@H](C)NC(=O)[C@H](CC(C)C)NC(=O)[C@H](CCC(N)=O)NC(=O)[C@H](CCC(=O)O)NC(=O)[C@H](C)NC(=O)[C@H](CCCNC(=N)N)NC(=O)[C@H](C)NC(=O)[C@H](CCSC)NC(=O)[C@@H](CCC(=O)O)NC(=O)[C@H](CC(C)C)NC(=O)[C@@H](NC(=O)[C@H](CCC(=O)O)NC(=O)[C@H](CCCNC(=N)N)NC(=O)[C@H](CC(C)C)NC(=O)[C@H](CC(C)C)NC(=O)[C@H](Cc1c[nH]cn1)NC(=O)[C@H](Cc1ccccc1)NC(=O)[C@@H](NC(=O)[C@H](CC(C)C)NC(=O)[C@H](CC(=O)O)NC(=O)[C@H](CC(C)C)NC(=O)[C@H](CO)NC(=O)[C@@H](NC(=O)[C@@H]1CCCN1C(=O)[C@@H]1CCCN1C(=O)[C@H](CCC(=O)O)NC(=O)[C@H](CCC(=O)O)NC(=O)[C@@H](N)CO)[C@@H](C)CC)[C@@H](C)O)C(C)C)[C@@H](C)CC)C(N)=O` [II, [D-Glu^20]-CRH], the “Hypotensive activity relative to CRH” value in data set [1] is “diminished”. Moreover, the EC50 in data set [2] (setting [4]) turned out to be 16 pM. Also, the “Anti-proliferative effect on Cloudman melanoma cells (in words)” value (from here on “Anti-proliferative effect … (in words)”) in data set [2] is recorded as “retained; also recorded: significantly inhibit proliferation”.
`CC[C@H](C)[C@H](NC(=O)[C@@H](NC(=O)[C@H](CCC(=O)O)NC(=O)[C@H](CCSC)NC(=O)[C@H](CC(C)C)NC(=O)[C@H](CCCCN)NC(=O)[C@H](CCCNC(=N)N)NC(=O)[C@H](CC(N)=O)NC(=O)[C@H](CO)NC(=O)[C@H](Cc1c[nH]cn1)NC(=O)[C@H](C)NC(=O)[C@H](CCC(N)=O)NC(=O)[C@H](CCC(N)=O)NC(=O)[C@H](C)NC(=O)[C@H](CC(C)C)NC(=O)[C@H](CCC(N)=O)NC(=O)[C@H](CCC(=O)O)NC(=O)[C@H](C)NC(=O)[C@H](CCCNC(=N)N)NC(=O)[C@H](C)NC(=O)[C@H](CCSC)NC(=O)[C@H](CCC(=O)O)NC(=O)[C@H](CC(C)C)NC(=O)[C@@H](NC(=O)[C@H](CCC(=O)O)NC(=O)[C@H](CCCNC(=N)N)NC(=O)[C@H](CC(C)C)NC(=O)[C@H](CC(C)C)NC(=O)[C@H](Cc1c[nH]cn1)NC(=O)[C@H](Cc1ccccc1)NC(=O)[C@@H](NC(=O)[C@H](CC(C)C)NC(=O)[C@H](CC(=O)O)NC(=O)[C@H](CC(C)C)NC(=O)[C@H](CO)NC(=O)[C@@H](NC(=O)[C@H]1CCCN1C(=O)[C@@H]1CCCN1C(=O)[C@H](CCC(=O)O)NC(=O)[C@H](CCC(=O)O)NC(=O)[C@@H](N)CO)[C@@H](C)CC)[C@@H](C)O)C(C)C)[C@@H](C)CC)C(N)=O` [III, [D-Pro^5]-CRH]: in data set [2] (setting [5]), the “EC50 fold greater than CRH” value turned out to be 10 fold. The EC50 in data set [2] (setting [4]) came to 82 pM.
Regarding `CC[C@H](C)[C@H](NC(=O)[C@@H](NC(=O)[C@H](CCC(=O)O)NC(=O)[C@H](CCSC)NC(=O)[C@H](CC(C)C)NC(=O)[C@H](CCCCN)NC(=O)[C@H](CCCNC(=N)N)NC(=O)[C@H](CC(N)=O)NC(=O)[C@H](CO)NC(=O)[C@H](Cc1c[nH]cn1)NC(=O)[C@H](C)NC(=O)[C@H](CCC(N)=O)NC(=O)[C@H](CCC(N)=O)NC(=O)[C@H](C)NC(=O)[C@H](CC(C)C)NC(=O)[C@H](CCC(N)=O)NC(=O)[C@H](CCC(=O)O)NC(=O)[C@H](C)NC(=O)[C@H](CCCNC(=N)N)NC(=O)[C@H](C)NC(=O)[C@H](CCSC)NC(=O)[C@H](CCC(=O)O)NC(=O)[C@H](CC(C)C)NC(=O)[C@@H](NC(=O)[C@H](CCC(=O)O)NC(=O)[C@H](CCCNC(=N)N)NC(=O)[C@H](CC(C)C)NC(=O)[C@H](CC(C)C)NC(=O)[C@H](Cc1c[nH]cn1)NC(=O)[C@H](Cc1ccccc1)NC(=O)[C@@H](NC(=O)[C@H](CC(C)C)NC(=O)[C@H](CC(=O)O)NC(=O)[C@H](CC(C)C)NC(=O)[C@H](CO)NC(=O)[C@@H](NC(=O)[C@@H]1CCCN1C(=O)[C@@H]1CCCN1C(=O)[C@H](CCC(=O)O)NC(=O)[C@H](CCC(=O)O)NC(=O)[C@@H](N)CO)[C@@H](C)CC)[C@@H](C)O)C(C)C)[C@@H](C)CC)C(N)=O` [Peptide I, CRH], the “Inhibition of growth of intracerebrally-injected W256 tumor cells” value in data set [3] is reported as “significant inhibition of growth”. Further, in the data set on W256 cells, the “Antiproliferative effects in in vitro cultures of W256 cells” value is “exhibited antiproliferative effects”. Besides, the “Time of maximum suppression of proliferation after treatment” value in data set [2] (Cloudman cells) is recorded as “about 96 hr”. The EC50 in data set [2] (96 hr, read-out: EC50 of CRH after 96 hr) was found to be 9 pM; in data set [2] (setting [4]), 8.6 pM. In data set [2], the “Anti-proliferative effect … (in words)” value is listed as “Significant anti-proliferative effects”.
Regarding `CC[C@H](C)[C@H](NC(=O)[C@H](CO)NC(=O)[C@H](CC(C)C)NC(=O)[C@H](CO)NC(=O)[C@@H]1CCCN1C(=O)[C@H](CC(N)=O)NC(=O)[C@@H](N)CC(=O)O)C(=O)N[C@@H](CC(=O)O)C(=O)N[C@@H](CC(C)C)C(=O)N[C@H](C(=O)N[C@@H](Cc1ccccc1)C(=O)N[C@@H](Cc1c[nH]cn1)C(=O)N[C@@H](CC(C)C)C(=O)N[C@@H](CC(C)C)C(=O)N[C@@H](CCCNC(=N)N)C(=O)N[C@H](C(=O)N[C@@H](CC(C)C)C(=O)N[C@@H](CC(C)C)C(=O)N[C@@H](CCC(=O)O)C(=O)N[C@@H](CC(C)C)C(=O)N[C@@H](C)C(=O)N[C@@H](CCCNC(=N)N)C(=O)N[C@H](C(=O)N[C@@H](CCC(N)=O)C(=O)N[C@@H](CO)C(=O)N[C@@H](CCC(N)=O)C(=O)N[C@@H](CCCNC(=N)N)C(=O)N[C@@H](CCC(=O)O)C(=O)N[C@@H](CCCNC(=N)N)C(=O)N[C@@H](C)C(=O)N[C@@H](CCC(=O)O)C(=O)N[C@@H](CCC(N)=O)C(=O)N[C@@H](CC(N)=O)C(=O)N[C@@H](CCCNC(=N)N)C(=O)N[C@H](C(=O)N[C@H](C(=O)N[C@@H](Cc1ccccc1)C(=O)N[C@@H](CC(=O)O)C(=O)N[C@@H](CO)C(=O)N[C@H](C(N)=O)C(C)C)[C@@H](C)CC)[C@@H](C)CC)[C@@H](C)O)[C@@H](C)O)[C@@H](C)O` [VI, Urocortin] (H-DNPSLSIDLTFHLLRTLLELARTQSQRERAEQNRIIFDSV-NH2), in data set [2] (setting [4]), the EC50 was 9.5 pM. In addition, the “Anti-proliferative effect … (in words)” value in data set [2] is on record as “highly effective in suppressing proliferation”.
Turning to `CC[C@H](C)[C@H](NC(=O)[C@@H](NC(=O)[C@H](CC(=O)O)NC(=O)[C@H](CC(C)C)NC(=O)[C@H](CC(C)C)NC(=O)[C@H](CC(C)C)NC(=O)[C@H](CCCNC(=N)N)NC(=O)[C@H](CC(N)=O)NC(=O)[C@H](CC(N)=O)NC(=O)[C@H](C)NC(=O)[C@H](C)NC(=O)[C@H](CCC(N)=O)NC(=O)[C@H](CCC(N)=O)NC(=O)[C@H](CCCCN)NC(=O)[C@H](CCC(=O)O)NC(=O)[C@H](CCCCN)NC(=O)[C@H](CCC(=O)O)NC(=O)[C@H](CCC(N)=O)NC(=O)[C@H](CCCCN)NC(=O)[C@H](CCC(=O)O)NC(=O)[C@@H](NC(=O)[C@H](CCC(=O)O)NC(=O)[C@@H](NC(=O)[C@H](CCSC)NC(=O)[C@H](CCCCN)NC(=O)[C@H](CCCNC(=N)N)NC(=O)[C@H](CC(C)C)NC(=O)[C@H](CC(C)C)NC(=O)[C@H](CCC(=O)O)NC(=O)[C@H](CC(C)C)NC(=O)[C@H](CO)NC(=O)[C@H](CC(C)C)NC(=O)[C@H](CC(=O)O)NC(=O)[C@@H](NC(=O)[C@H](CO)NC(=O)[C@@H](NC(=O)[C@@H]1CCCN1C(=O)[C@@H]1CCCN1C(=O)CNC(=O)[C@@H]1CCC(=O)N1)[C@@H](C)CC)[C@@H](C)CC)[C@@H](C)CC)[C@@H](C)CC)[C@@H](C)O)C(N)=O` [VII, Sauvagine], the EC50 in data set [2] (setting [4]) came to 7.8 pM. Further, in data set [2], the “Anti-proliferative effect … (in words)” value is listed as “highly effective in suppressing proliferation”.
In the case of “acetyl-cyclo (30-33)[D-Phe^12, Nle^18, D-Glu^20, Nle^21, Glu^30, D-Ala^32]-urotensin 1(4-41) [Peptide V]”, the “EC50 fold lower than that of CRH” value in data set [2] (setting [5]) worked out at 10 fold. Also, the “Anti-proliferative effect … (in words)” value in data set [2] was “highly effective in suppressing proliferation”.
α-helical-CRH(9-41): the “Inhibition of the anti-proliferative effect of CRH peptides by the CRH receptor antagonist” value in data set [2] (Cloudman cells) is “inhibited”.
